Test results taken from patent publication US20220008508A1, “RELAXIN RECEPTOR 1 FOR USE IN TREATMENT AND PREVENTION OF HEART FAILURE” (Universität Heidelberg, priority 2018, published 2022).

Legend:
rat RXFP1 = molecular target: T1, rat RXFP1 (Rattus norvegicus, UniProt Q6R6I6); test: P-PLB(S16) immunoblot in NRVMs transduced with rat RXFP1 virus; assay type: cell-based; conditions: 1 μM ML290 for 30 minutes
T1 construct: expressed in transfected cells
T1 sequence (Q6R6I6 1-758): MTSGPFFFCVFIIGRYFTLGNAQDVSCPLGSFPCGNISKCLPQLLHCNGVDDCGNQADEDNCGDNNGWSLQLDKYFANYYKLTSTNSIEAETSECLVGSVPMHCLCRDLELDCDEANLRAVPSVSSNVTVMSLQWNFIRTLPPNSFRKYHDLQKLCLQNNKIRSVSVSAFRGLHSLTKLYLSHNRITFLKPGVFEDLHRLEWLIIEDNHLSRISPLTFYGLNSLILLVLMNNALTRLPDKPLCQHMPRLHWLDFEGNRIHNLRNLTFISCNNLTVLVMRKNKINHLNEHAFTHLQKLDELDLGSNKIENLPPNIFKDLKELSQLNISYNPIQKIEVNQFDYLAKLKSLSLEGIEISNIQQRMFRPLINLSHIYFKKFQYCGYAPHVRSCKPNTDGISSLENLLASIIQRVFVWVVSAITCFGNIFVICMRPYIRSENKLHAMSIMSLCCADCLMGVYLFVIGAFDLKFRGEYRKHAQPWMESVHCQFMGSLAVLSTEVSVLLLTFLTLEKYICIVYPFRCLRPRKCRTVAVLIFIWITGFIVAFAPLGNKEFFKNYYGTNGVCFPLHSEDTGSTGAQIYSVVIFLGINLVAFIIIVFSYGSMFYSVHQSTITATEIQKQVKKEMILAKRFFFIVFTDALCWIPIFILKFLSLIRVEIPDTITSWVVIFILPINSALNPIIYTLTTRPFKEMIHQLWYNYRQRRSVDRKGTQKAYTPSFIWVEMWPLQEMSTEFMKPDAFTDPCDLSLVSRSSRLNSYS
From the text: (§1) Images were processed using Odyssey imaging software.

human RXFP1 = molecular target: T2, human RXFP1 (Homo sapiens, UniProt Q9HBX9); test: P-PLB(S16) immunoblot in NRVMs transduced with human RXFP1 virus; assay type: cell-based, rat
T2 construct: synthesized and cloned into a pCDNA3.1 plasmid with N-terminal FLAG-TAG; expressed in transfected cells; host or cells: neonatal rat ventricular cardiomyocytes (NRVMs) transduced with AAV6-huRXFP1
From the text: as §1

huRXFP1 = molecular target: T3, huRXFP1 (Homo sapiens, UniProt Q9HBX9); test: Pressure-volume loop hemodynamics in huRXFP1 TG animals after RLN administration; assay type: in vivo, mouse; conditions: RXFP1 transgenic animals vs WT animals, 10 μg RLN I.P.
T3 construct: FLAG huRXFP1 was cloned onto a place holder plasmid; expressed in transfected cells; host or cells: transgenic mice, cardiomyocyte expression under the alpha-MHC promoter (in vivo)
T3 sequence (Q9HBX9 with tags, fused parts or gaps): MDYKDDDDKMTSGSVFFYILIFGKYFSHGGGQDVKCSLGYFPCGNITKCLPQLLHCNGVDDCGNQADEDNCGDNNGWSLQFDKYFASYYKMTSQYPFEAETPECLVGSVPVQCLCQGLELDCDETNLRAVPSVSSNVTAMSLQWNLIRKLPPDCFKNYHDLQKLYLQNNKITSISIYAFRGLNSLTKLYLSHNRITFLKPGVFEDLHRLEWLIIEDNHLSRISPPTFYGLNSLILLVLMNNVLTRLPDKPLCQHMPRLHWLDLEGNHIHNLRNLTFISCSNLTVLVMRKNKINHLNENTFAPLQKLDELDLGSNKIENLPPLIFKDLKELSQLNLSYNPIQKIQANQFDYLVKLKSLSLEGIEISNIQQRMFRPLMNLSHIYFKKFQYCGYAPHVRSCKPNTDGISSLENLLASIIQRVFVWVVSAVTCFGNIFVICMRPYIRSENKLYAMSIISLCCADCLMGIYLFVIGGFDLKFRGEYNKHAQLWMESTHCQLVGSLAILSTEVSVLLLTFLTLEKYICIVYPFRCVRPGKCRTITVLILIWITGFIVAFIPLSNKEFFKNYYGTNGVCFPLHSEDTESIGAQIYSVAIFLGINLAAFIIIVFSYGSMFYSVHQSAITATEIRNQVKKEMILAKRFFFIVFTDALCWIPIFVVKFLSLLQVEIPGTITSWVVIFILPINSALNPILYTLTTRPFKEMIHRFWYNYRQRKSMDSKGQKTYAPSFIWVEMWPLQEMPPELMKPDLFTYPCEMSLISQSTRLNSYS
Experimental: Pressure-volume loop (PV loop) measurement was performed modified from Abraham and Mao (Abraham and Mao (2015), J. Vis. Exp. (103): e52942). The animal was anesthetized according to the body weight with a cocktail of medetomidine, midazolam, and fentanyl intraperitoneally 15 minutes prior to the measurements. After the righting reflex was lost, the mouse was secured to the operating table with surgical tape. Prior to the measurement, the catheter tip was equilibrated in warm saline for 30 minutes. The neck and chest area was cleaned with ethanol and the fur was removed. An incision was made over the right carotid from mandible to sternum. The surrounding tissue was dissected to expose the right carotid, and the vagus nerve, which runs adjacent to the carotid, was […]. Sterile 6.0 silk suture was placed around the distal end (away from the chest) of the carotid artery, tied and secured. An additional suture was placed below the first suture on the carotid artery. The second suture was loosely tightened and clamped the carotid artery proximally to the second suture. […] The PV loops were continuously recorded throughout the experiment until 10 minutes after administration of the tested substances.
minimum were calculated according to the manufacturer's recommendation (Transonic). […]

[1] = system: adult mouse cardiomyocytes expressing RXFP1; test: Ca2+ transient measurement in adult cardiomyocytes of RXFP1 transgenic mice; assay type: cell-based; conditions: isolated TG adult cardiomyocytes, 100 nM RLN, 1 minute
From the text: Adult mouse cardiac cells were isolated a modified protocol from Harding et al. (Harding et al., 1990, Cardioscience. 1: 49-54). The mouse heart was perfused with digestion buffer in the Langendorff technique, thus enabling dissociation of single cardiac cells. An adult male mouse (30-35 g) was quickly euthanatized by cervical dislocation. Incision areas on the abdomen and thorax were sterilized with 70% ethanol and opened with lateral cuts by scissors. The abdominal Vena Cava was exposed, and heparin was given I.V. Then the heart was exposed and cut out with a large portion of the aorta and quickly placed into a 6 cm Petri dish with 10 mL of room temperature perfusion buffer. The aorta was slid onto the cannula of the Langendorff apparatus and fixed with a double knots surgical suture. Perfusion was started immediately with a drip rate of ˜3.5 mL/min. Filling of the coronary arteries was checked and evaluated in order to determine, if the heart was correctly positioned on the cannula. In order to remove residual serum traces and free Ca2+, the heart was washed with perfusion buffer for 1 minute. After that the heart was perfused with digestion buffer containing a mixture of liberase (mixture of collagenases) and trypsin solution for 10 minutes. The perfusion was stopped, when the heart became flaccid and easily penetrable by fine tip forceps. […]
Intracellular Ca^2+ transients were measured according to Yu et al. with modifications to fit available apparatus (Yu et al., 2013, J. Biol. Chem. 288(31): 22481-22492). […] Next the dish was protected from light and connected to an electrode system on the table of a high throughput inverted fluorescence microscope (Cytocypher). […] The alternative measurement of the bispectral emission (340 nm/380 nm) was performed with the fluorescence microscope for baseline and after 1, 5, and 10 minutes stimulation with NaCl, 100 nM RLN, and 10 nM ISO. The transients were calculated using transient calculated software from the cytocypher. The following parameters were analyzed: a) Peak Height, b) Departure velocity, and c) Return velocity.

[2] = system: TAC-induced heart failure in mice; test: TAC heart failure model, echocardiography after huRXFP1 gene therapy with or without RLN pumps; assay type: in vivo, C57BL/6 mice; conditions: day 55, control AAV9.LUC virus, RLN pump
Experimental: Heart failure model was generated by transverse aortic constriction operation (TAC) previously described (Rockman et al., 1991, Proc. Natl. Acad. Sci. 88: 8277-8281). 8 weeks old C57BL/6 mice were ordered and weighted prior to the operation. TAC operation was performed on day 0 using 26-gauge blunt needle effectively reducing the diameter of the transverse aorta to approximately 0.46 mm (Rockman et al., 1994, Proc. Natl. Acad. Sci. 91(7): 2694-2698). Cardiac function measurements were performed before Transverse aortic Constriction (TAC) operation (day −2) before virus infusion (day 7), before pump implantation (day 28), and at 2-month follow up time point (day 55) (FIG. 7A). […] Osmotic pumps were implanted on day 28 with animals randomized to get either saline or recombinant relaxin pumps. Follow up assessments were performed on day 55 and the animals were sacrificed 3 days later. In addition, 17 mice served as control animals that were sham operated followed by either saline or recombinant relaxin pumps implantation.
(§2) Echocardiography was performed using Vevo 2100, VisualSonics. The mice were shaved on the chest and held in prone position. […] The ejection fraction (EF) was calculated from 6 consecutive heartbeats in the M-mode using LV trace function.

[3] = Circulating plasma levels of recombinant relaxin H2 by ELISA; assay type: in vivo, mice; conditions: all animals receiving RLN by osmotic pump
Experimental: Circulating plasma levels of recombinant relaxin H2 were measured using a ready to use relaxin H2 Quantikine ELISA kit from R&D Systems (DLR200). Plasma samples were diluted 1:200 to stay within the detection range of the assay. 50 μL of negative control, positive control, standard and diluted samples were used for the measurement.

RXFP1 receptor = molecular target: T4, RXFP1 receptor (Rattus norvegicus, UniProt Q6R6I6); test: cAMP production (cAMP Glo assay) in RXFP1-transduced NRVMs stimulated with RLN; assay type: cell-based
T4 construct: expressed in transfected cells; host or cells: neonatal rat ventricular cardiomyocytes (NRVMs) transduced with AAV6-RXFP1
T4 sequence (Q6R6I6 1-758): T1 sequence (Q6R6I6 1-758)
Experimental: Manufacture's manual was followed. […] The luminescence was measured with a luminometer.

[4] = system: TAC-induced heart failure in mice; test: TAC heart failure model, echocardiography after AAV9-RXFP1 (rat) gene therapy with or without RLN pumps; assay type: in vivo, C57BL/6 mice; conditions: day 55, control AAV9.LUC virus, RLN pump
Experimental: Transverse aortic constriction (TAC) operation was previously described (Rockman et al., 1991, Proc. Natl. Acad. Sci. 88: 8277-8281). TAC model was used as heart failure model. 8 weeks old C57BL/6 mice were weighted prior to the operation. TAC operation was performed on day 0 using 26-gauge blunt needle effectively reducing the diameter of the transverse aorta to approximately 0.46 mm (Rockman et al., 1994, Proc. Natl. Acad. Sci. 91(7): 2694-2698). Cardiac function was assessed by echocardiography (Vevo 2100 VisualSonics) before TAC operation (day −2), before virus infusion (day 7), before pump implantation (day 28), and at 2-month follow up (day 55) (FIG. 1A and B). […] Osmotic pumps (Alzet 2004) were implanted on day 28 with animals randomized to get either saline or recombinant relaxin pumps. Follow up assessments were performed on day 55 and the animals were sacrificed 3 days later. In addition, 17 mice served as control animals which underwent sham operation, followed by either saline or recombinant relaxin pump implantation.
as §2, with “shaved” for “shaved on the chest”, “(EF), fractional shortening (FS), left ventricular internal diameter (LVIDd) and heart rate (HR) were” for “(EF) was”

[5] = molecular target: rat (Rattus norvegicus) relaxin receptor 1 (RXFP1) with N-terminal FLAG-TAG, expressed in neonatal rat ventricular cardiomyocytes from AAV6-CMV-MLC260-FLAG-Rel1 Rattus (Rattus norvegicus) (UniProt Q6R6I6); test: cell-based or functional assay

Molecule: CC(C)Oc1ccccc1C(=O)Nc1ccccc1C(=O)Nc1cccc(S(=O)(=O)C(F)(F)F)c1 [ML290, 2-Isopropoxy-N-(2-(3-(trifluoromethylsulfonyl)phenylcarbamoyl)phenyl)benzamide]
- P-PLB(S16) (rat RXFP1): Marked increase
- P-PLB(S16), 1 μM ML290 vs 100 nM recombinant RLN (human RXFP1): No difference
- P-PLB(S16) (human RXFP1; 1 μM ML290 for 30 minutes): Significant increase

Molecule: RLN: recombinant relaxin H2 peptide hormone, RXFP1 agonist
- Heart rate (HR) (huRXFP1): significant increase
- dP/dt maximum (huRXFP1): significant increase
- Ca2+ transient Departure velocity [1]: trend toward an increase
- Ca2+ transient Peak Height [1]: trend toward an increase
- Ca2+ transient Return velocity [1]: trend toward an increase
- Ejection fraction (EF) [2]: 50.02±18.31%
- RLN plasma levels [3]: elevated
- RLN concentration at peak stimulation of the RXFP1 receptor (cAMP) (RXFP1 receptor; 30 minutes): 10 nM
- cAMP accumulation with higher recombinant RLN concentrations (RXFP1 receptor; above 10 nM RLN): no further increase
- Ejection fraction (EF) [4]: 47.79±13.38%
- Fractional shortening (FS) [4]: 23.98±7.64

Molecule: recombinant relaxin H2 (from UniProt P04090 25-53; P04090 162-185) (ligand)
- RLN concentration of peak cAMP stimulation in transduced NRVMs [5]: 10 nM
